According to US12128012B2, “Ketamine treatment for amyotrophic lateral sclerosis” (University of Kansas, priority 2020, dated 2024):

How the values were obtained:
Type in all cases: in vivo
[1] = system: SOD1-G93A mouse model of ALS; assay: Body weight in SOD1-G93A mice under ketamine
Excerpt: (§1) Testing can be performed in SOD1-G93A mice as follows. Body weight and grip strength during a hanging wire test can be measured 3 days a week beginning at 90 days of age (presymptomatic). Drug injections can be made immediately after motor testing. Mice can be tested until they reach end-stage as defined by loss of righting reflex for 30 seconds or if they are found dead in their cage. At death, the muscles (soleus, tibialis anterior, and diaphragm) and brains can be harvested for histological analyses. Comparisons of neuromuscular junction innervation and myosin heavy chain isoforms can be made between the treatment groups. Experiments can determine cortical motor neuronal integrity using standard histological methods.
(§2) Experiments were performed to determine the effects of daily sub-anesthetic doses (e.g., less than 100 mg/kg) of ketamine on the SOD1-G93A mouse model of ALS. The method included administering two doses of ketamine (e.g., 10 mg/kg and 30 mg/kg) and a saline vehicle to three groups of SOD1-G93A mice per day for 5 days per week beginning at 90 days of age. The method included measuring body weight, grip strength, and survival.
The three groups (e.g., 12 mice per group with intraperitoneal injection): vehicle (e.g., 0), 10 mg/kg (e.g., 10), and 30 mg/kg (e.g., 30) are shown (p=0.06). […] As such, the 10 mg/kg dosage may be useful for ALS patients. […] Accordingly, increasing the amount of ketamine administered may increase the effects described herein. Any increase in life (e.g., probability of survival) can be beneficial, which may be accomplished by treatment with the ketamine compound.

[2] = system: SOD1-G93A mouse model of ALS; assay: Grip strength, hanging wire test, SOD1-G93A mice; conditions: 10 mg/kg and 30 mg/kg vs saline vehicle, 5 days per week from 90 days of age; data not shown
Excerpt: as §1, §2

[3] = system: SOD1-G93A mouse model of ALS; assay: Survival (day of death) in SOD1-G93A mice
Excerpt: as §1, §2
As shown, treatment with the ketamine compound appears to provide a higher probability of survival for a longer period of time for both the 10 mg/kg and 30 mg/kg dosages (p=0.06; FIG. 2). […]

[4] = system: SOD1-G93A mouse model of ALS; assay: Latency between 20% loss of body weight and death in SOD1-G93A mice; conditions: for latency between 20% loss of body weight and death: FIG. 3 (vehicle about 2 days)
Method: as §2
Additionally, the latency in days between the day in which each mouse reached 80% of its initial body weight (i.e., 20% reduction) and the day of death as defined above was calculated. […] Accordingly, higher dosages may still provide for longer latency of life, or longer life expectancy.

Compound: CNC1(c2ccccc2Cl)CCCCC1=O (stereo not shown) [ketamine, 2-(2-chlorophenyl)-2-(methylamino)cyclohexan-1-one]
- effects on body weight ([1]; 10 mg/kg and 30 mg/kg vs saline vehicle, 5 days per week from 90 days of age, data not shown): no significant effects
- probability of survival curve for day body weight fell below 80% ([1]; 10 mg/kg intraperitoneal vs vehicle, FIG. 1): improvement in the probability of survival
- loss of body weight (muscle mass), trend in survival curve ([1]; 30 mg/kg intraperitoneal vs 10 mg/kg or without ketamine, FIG. 1): delays loss of body weight (muscle mass) for a longer period of time
- survival analysis: day in which body weight fell below 80%, difference between the groups ([1]; vehicle, 10 mg/kg, 30 mg/kg, intraperitoneal, 12 mice per group, FIG. 1, p=0.06): no significant difference
- effects on grip strength using the hanging wire test [2]: no significant effects
- probability of survival (day of death: loss of righting reflex for 30 seconds or found dead) ([3]; 10 mg/kg vs vehicle, FIG. 2, overall p=0.06): some improvement over the vehicle
- probability of survival (day of death: loss of righting reflex for 30 seconds or found dead) ([3]; 30 mg/kg vs vehicle, FIG. 2, p<0.05): survived significantly longer than the vehicle-treated group
- longer life expectancy than no treatment ([4]; 10 mg/kg vs vehicle): about 4 days
- latency between 20% loss of body weight and death ([4]; 10 mg/kg): about 6 days
- longer life expectancy over the 10 mg/kg treatment ([4]; 30 mg/kg vs 10 mg/kg): about 4 days
- longer life expectancy than no treatment ([4]; 30 mg/kg vs vehicle): about 8 days
- latency between 20% loss of body weight and death ([4]; 30 mg/kg): about 10 days
- latency between 20% loss of body weight and death, effect of dose ([4]; vehicle, 10 and 30 mg/kg, ANOVA p<0.05, FIG. 3): statistically significant dose-dependent increase
